Reference: patent US5614192A, “T cell receptor peptides as therapeutics for immune-related disease” (Connective Therapeutics, Inc., priority 1993, dated 1997)

Experiments:
T cell immunity = T cell immunity / DH response induced by peptide; format: in vivo; settings: Lewis rats
Description: Immunogenicity of peptides useful in the present invention can be screened by well-known methods, such as use of a DH response in an animal. In such a response, an animal is "sensitized" by injection of an appropriate dose of an antigen, typically subcutaneously (SC), frequently with an adjuvant, such as complete Freund's adjuvant (CFA). Generally about 5-15 days later, the response is "elicited" by challenging the animal, typically intradermally (ID), with an appropriate dose of the antigen, typically in saline or other buffer. The response is assessed 24-48 hours later. […]
The desired peptides, with sequences determined as described above, are prepared using standard synthesis techniques including solution and solid phase sequential amino acid conjugation and recombinant production in prokaryotic or eukaryotic hosts. Verification that the peptide prepared is immunogenic can easily be determined using a DH reaction in an animal (e.g., mouse or rat), as described above. […] The ear swelling response, measured 24 or 48 hours after challenge, serves as a simple and reliable measure of the presence of T cell-mediated immunity to the peptide.

EAE [1] = test: Prevention of EAE by immunization with TCR peptide (Example VI); format: in vivo, Lewis rats; settings: for protection from EAE: Lewis rats
Description: EAE is a well-recognized rat model of the human autoimmune disease, multiple sclerosis. […] In this model, the disease is induced by injecting the subject rat with an encephalitogenic form of myelin basic protein, such as, for example, guinea pig basic protein (GPBP) or a synthetic peptide that corresponds to residues 72-89 of GPBP (GPBP(72-89)). Injection of either of these peptides in complete Freund's adjuvant (CFA) induces encephalitogenic T cell clones that utilize preferentially the rat homologs of mouse TCR Vα2 and Vβ8 genes (Chou, Y. K., et al., J. Neurosci. Res. 22:181-187 (1989); Burns, F. R., et al., J. Exp. Med. 169:27-39 (1989)).
^1 EAE was induced by SC challenge with 50 μg GPBP + 400 μg
^2 Rats were injected SC with either: (1) 100 μg of the TCR peptid
^3 Values represent the mean of the maximum severity of EAE. 0, no

TCR Vβ8(39-59) peptide = format: binding, rat
[2] = test system: T cell lines derived from rats protected from EAE; test: Proliferation of LN cells and T cell lines from rats protected by TCR Vβ8 peptide (Table 12); format: cell-based, rat
EAE [3] = test: Prevention and suppression of EAE by immunization with TCR Vβ8(39-59) (Table 17); format: in vivo, Lewis rats
EAE [4] = test: Clinical EAE in rats treated with TCR Vβ8(39-59) before or after onset (Table 22); format: in vivo; settings: Exp. 2; control TCR peptide, day 13
Procedure: The ability of the TCR Vβ8(39-59) given either SC (in adjuvant) or ID (in saline) to disrupt the disease process when given at various times after induction of EAE with GPBP was tested (Table 22). […] In both cases, with both routes of injection of the peptide, there was a significant reduction in the duration of the disease, though not in the severity or time of onset. The efficacy of the peptide given in saline via the ID route is of particular importance to human therapy, as it is preferred to SC injection in adjuvant.
In Experiment 2, the time of ID administration of the TCR peptide was varied, as was the dose. […] A delay in onset of the disease was also observed. Furthermore, the percentage of animals showing signs of the disease decreased. A larger dose of the peptide (200 μg) appeared less efficacious than the lower dose, possibly due to a short-term overload of the peptide which could have comprised the immune response generated against the TCR. Treatment with a similarly sized peptide corresponding to an irrelevant TCR had no effect on onset, severity or incidence of EAE, but may have reduced the duration somewhat (last line of Table 22).

EAE [5] = test: Prevention, suppression and treatment of EAE with TCR Vβ8-39-59 peptide (Table 25); format: in vivo, Lewis rats
DTH response = test: Delayed hypersensitivity responses to TCR peptides, ear swelling (Table 26); format: in vivo, Lewis rats
LNC and T cell lines = test: T cell proliferation after treatment of EAE with TCR Vβ8 39-59/CFA (Table 27); format: cell-based, rats
Procedure: Lymphocyte Proliferation: Activation of T cells was measured by ^3 H-Tdy uptake. 500,000 lymph node cells or 20,000 line cells in the presence of 1 million irradiated thymic accessory cells were incubated with culture medium and antigens in microtiter wells for 18 hours prior to the addition of 0.5 μBq labeled thymidine. The cell cultures were harvested onto glass fiber filters and counted by liquid scintillation techniques. Mean CPM were calculated from triplicate cultures. Standard deviations (SD) from replicate cultures varied <10% from the mean value.
^a Treated rats were injected s.q. with 50 μg TCR Vβ839-59
^b LW cells collected after the untreated group recovered from EAE

[6] = test system: lymph node cells and Vβ8-44-54 selected T cell line
[7] = test system: LN cells and T cell lines; test: Proliferation of LN cells and lines from rats protected by transfer of TCR Vβ8 peptide-specific T cells (Table 15); format: cell-based, rat
Procedure: ^1 Lymph node (LN) cells were collected 20 days after simultaneous
^2 LN cells were tested directly (NL column).
^3 T cell lines were selected from these LN cells by culture with TCR

popliteal LN cells = test: Proliferation of LN cells after EAE induction and TCR peptide treatment (Table 23); format: cell-based, Lewis rats
Procedure: The proliferative responses and specificity of T cells in the draining LN (popliteal) of rats treated with TCR Vβ8(39-59) peptide for EAE on day 13 after disease induction were examined (Table 23). On day 0, Lewis rats received an EAE-inducing regimen of GP-BP+CFA SC into their hind footpads. […] On day 20, about 7 days after onset of EAE, popliteal LNs were removed and T cell proliferative activity in response to the indicated antigens or mitogens were tested directly.
Results are shown as net ^3 Hthymidine incorporation of 5 ×

clone C455-69 = test: Proliferation response of clone C455-69 to BP peptides (Table 28); format: cell-based, rat; settings: 50 μg/ml peptide (5 μg/ml ConA), 20,000 clone C455-69 cells, 3 days
Procedure: Proliferation assays: Proliferation assays were performed in 96-well microtiter plates. 2×10^4 T cells and 10^6 irradiated thymocytes/well were incubated with stimulation medium only, ConA, or antigen at 37C in 7% CO2. The cultures were incubated for 72 h, the last 18 h in the presence of 0.5 Bq ^3 H-Tdr. The cells were harvested onto glass fiber filters and TCR uptake was assessed by liquid scintillation. Mean CPM wre calculated from triplicate wells. The standard deviation from replicate wells varied <10% from the mean values.
the homologous RtBP sequence. Five μg/ml ConA or 50 μg/ml of each

[8] = test system: clones C372-89 and C455-69; test: Coculture of clones C372-89 and C455-69, proliferation (Table 31); format: cell-based, rat
Procedure: 50 μg of antigen was added to 10,000 cells of each clone stimulated in […]

[9] = 100 μg peptide/CFA SC 30 days before GPBP/CFA
[10] = 1st value column (head not given; LN cells of protected rats)
[11] = 2nd value column (head not given, TCR Vβ8(39-59)-selected line)
[12] = GP-BP/CFA immunized rats, ear test Day 12 (EAE onset)
[13] = Normal or saline/CFA rats, ear test Day 12
[14] = Untreated rats (GPBP/CFA only), LNC
[15] = A. TCR Vβ8 peptide-specific T cell transfer
[16] = 50 μg antigen, 10,000 cells, 3 days

Molecule: APGGTLQQLFYSFNVGQSLF [TCR Vβ14 peptide, reference compound]
- induction of T cell immunity (T cell immunity): did induce immunity
- EAE Day of Onset (EAE [1]; [9]): 14 ± 2
- EAE Duration (EAE [1]; [9]): 6 ± 2
- EAE Severity (mean of maximum severity, scale 0-4) (EAE [1]; [9]): 3.1 ± 0.3
- EAE Incidence (EAE [1]; 100 μg peptide/CFA SC 30 days before challenge with 50 μg GPBP/CFA): 4/4
- protection from EAE (EAE [1]): did not confer protection against EAE
- protection from EAE (EAE [1]; listed as Vβ14(39-59)): did not provide protection from EAE
- absorbance of serum on TCR Vβ8(39-59) peptide (A405) (TCR Vβ8(39-59) peptide): 0.02±0.01 units
- T Cell Proliferation [2, 10]: 10 cpm × 10^-3
- T Cell Proliferation [2, 11]: 2 cpm × 10^-3
- Clinical Score (EAE [3]; 100 μg peptide/CFA day 0, Gp-S49S (100 μg) challenge day 0): 2.9
- Day of Onset (EAE [4]): 13.7 ± 0.5
- Disease Duration (EAE [4]): 3.5 ± 0.5
- Disease Incidence (EAE [4]): 6/6
- Disease Severity (EAE [4]): 2.5 ± 0.8
- Duration (EAE [5]; peptide/CFA s.q., Day 0): 6.4 ± 0.3 days
- EAE/TOTAL (EAE [5]; peptide/CFA s.q., Day 0): 6/6
- Max Clin. Signs (EAE [5]; peptide/CFA s.q., Day 0): 3.3 ± 0.5
- Onset (EAE [5]; peptide/CFA s.q., Day 0): 12
- Duration (EAE [5]; peptide/CFA s.q., Day -40): 6.1 ± 0.6 days
- EAE/TOTAL (EAE [5]; peptide/CFA s.q., Day -40): 8/8
- Max Clin. Signs (EAE [5]; peptide/CFA s.q., Day -40): 3.2 ± 0.3
- Onset (EAE [5]; peptide/CFA s.q., Day -40): 12
- Duration (EAE [5]; peptide/CFA s.q., Day onset): 6.0 ± 1.5 days
- EAE/TOTAL (EAE [5]; peptide/CFA s.q., Day onset): 4/4
- Max Clin. Signs (EAE [5]; peptide/CFA s.q., Day onset): 3.0 ± 0.4
- Onset (EAE [5]; peptide/CFA s.q., Day onset): 12
- 48 Hour DTH Response (DTH response; [12]): 11 ± 4
- 48 Hour DTH Response (DTH response; [13]): 10 ± 4
- 48 Hour DTH Response (DTH response; TCR Vβ8 peptide/CFA immunized rats, ear test Day 30): 9 ± 3
- 48 Hour DTH Response (DTH response; TCR Vβ814 (so in the source) peptide/CFA immunized rats, ear test Day 30): 40 ± 4
- Proliferation (LNC and T cell lines; Treated rats, line Vβ8/1st): 8 ± 2 CPM/1000
- Proliferation (LNC and T cell lines; [14]): 29 ± 4 CPM/1000
- Proliferation (LNC and T cell lines; Untreated rats, line BP/1st): 17 ± 2 CPM/1000
- Proliferation (LNC and T cell lines; Untreated rats, line Vβ8/1st): 11 ± 2 CPM/1000
- Proliferation (LNC and T cell lines; Untreated rats, line Vβ14/1st): 25 ± 6 CPM/1000
- Response of Lymph Node Cells [6]: 18 ± 2
- Response of T Cell Line [6]: 9 ± 1

Molecule: KQNNNHNNMYWYRQDMG [Vβ8 (25-41)]
- induction of T cell immunity (T cell immunity): does not induce T cell immunity
- protection from EAE (EAE [1]): does not protect Lewis rats from EAE
- Response of Lymph Node Cells [6]: 14 ± 0
- Response of T Cell Line [6]: 6 ± 1

B1: GPBP: guinea pig basic protein, encephalitogen (protein, UniProt P25188 1-167, looked up)
Myelin basic protein: ASQKRPSQRHGSKYLATASTMDHARHGFLPRHRDTGILDSIGRFFGSDRAAPKRGSGKDSHHAARTTHYGSLPQKSQRSQDENPVVHFFKNIVTPRTPPPSQGKGRGLSLSRFSWGAEGQKPGFGYGGRADYKSKGFKGAHDAQGTLSKIFKLGGRDSRSGSPMARR
- T Cell Proliferation [2, 10]: 16 cpm × 10^-3
- T Cell Proliferation [2, 11]: 3 cpm × 10^-3
- T Cell Proliferation ([2]; 4th value column (head not given; mixed TCR- and BP-specific T cells)): 102 cpm × 10^-3
- T Cell Proliferation ([2]; GPBP-selected line): 93 cpm × 10^-3
- Proliferation, GPBP Selected Line [7, 15]: 16 cpm × 10^-3
- Proliferation, TCR Peptide Selected Line [7, 15]: 0 cpm × 10^-3
- Proliferation, LN ([7]; A. rats given 3 × 10^7 TCR Vβ8 peptide-specific T cells + GPBP/CFA, LN cells day 20): 80 cpm × 10^-3
- Proliferation, GPBP Selected Line ([7]; B. Saline + GPBP/CFA): 65 cpm × 10^-3
- Proliferation, LN ([7]; B. Saline + GPBP/CFA): 32 cpm × 10^-3
- Clinical Score (EAE [3]; antigen alone, day 0 (no TCR peptide)): 3.1 ± 0.6
- T Cell Proliferation (popliteal LN cells; LN cells day 20 of Control rats (saline day 13)): 49 cpm × 10^-3
- T Cell Proliferation (popliteal LN cells; LN cells of rats given TCR Vβ 8(39-59) 50 μg ID day 13): 44 cpm × 10^-3
- T Cell Proliferation (popliteal LN cells; LN cells of rats given TCR Vβ 8(39-59) 100 μg SC (in CFA) day 13): 50 cpm × 10^-3
- Duration (EAE [5]; GP-BP/CFA only): 6.6 ± 0.9 days
- EAE/TOTAL (EAE [5]; GP-BP/CFA only): 26/26
- Max Clin. Signs (EAE [5]; GP-BP/CFA only): 3.4 ± 0.2
- Onset (EAE [5]; GP-BP/CFA only): 12
- 48 Hour DTH Response (DTH response; [12]): 35 ± 5
- 48 Hour DTH Response (DTH response; [13]): 5 ± 3
- net proliferation of reactive cells (LNC and T cell lines; GP-MBP-selected line from TCR peptide-treated rats): 12,000 CPM
- net proliferation of reactive cells (LNC and T cell lines; GP-MBP-selected line from untreated EAE-recovered rats): 84,000 CPM
- Proliferation (LNC and T cell lines; Treated rats (TCR Vβ8 39-59/CFA at onset), LNC): 50 ± 7 CPM/1000
- Proliferation (LNC and T cell lines; Treated rats, line BP/1st): 29 ± 6 CPM/1000
- Proliferation (LNC and T cell lines; Treated rats, line Vβ8/1st): 6 ± 1 CPM/1000
- Proliferation (LNC and T cell lines; [14]): 49 ± 5 CPM/1000
- Proliferation (LNC and T cell lines; Untreated rats, line BP/1st): 99 ± 9 CPM/1000
- Proliferation (LNC and T cell lines; Untreated rats, line Vβ8/1st): 23 ± 2 CPM/1000
- Proliferation (LNC and T cell lines; Untreated rats, line Vβ14/1st): 11 ± 1 CPM/1000
- Response CPM/1000 ± S.D. (clone C455-69): 203 ± 7 CPM/1000
- Proliferation, C372-89 [8, 16]: 40 ± 3 CPM/1000
- Proliferation, C455-69 [8, 16]: 50 ± 9 CPM/1000
- Proliferation, C372-89 + C455-69 ([8]; coculture, 10,000 cells of each clone): 91 ± 12 CPM/1000
